# From PubChem BioAssay (NCI)
#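 Dose response: 5 concentrations. Exposure: 48 h. Format: 96-well plates. Endpoint: linear interpolation; highest concentration if not reached. At the GI50, growth is halved. TGI: total growth inhibition.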
# Legend:
# Assay in all cases: DTP human tumour cell line panel, 48 h
# [1] = tested on: TK-10 renal
# [2] = tested on: IGROV1 ovarian
# [3] = tested on: SNB-75 CNS
# [4] = tested on: SK-OV-3 ovarian
# [5] = tested on: A498 renal
# [6] = tested on: EKVX NSCLC
# [7] = tested on: HT29 colon
# [8] = tested on: RXF 393 renal
# [9] = tested on: NCI/ADR-RES ovarian
# [10] = tested on: SW-620 colon
Compound,GI50 [1] [µM],TGI [1] [µM],GI50 [2] [µM],TGI [2] [µM],GI50 [3] [µM],TGI [3] [µM],GI50 [4] [µM],TGI [4] [µM],GI50 [5] [µM],TGI [5] [µM],GI50 [6] [µM],TGI [6] [µM],GI50 [7] [µM],TGI [7] [µM],GI50 [8] [µM],TGI [8] [µM],GI50 [9] [µM],TGI [9] [µM],GI50 [10] [µM],TGI [10] [µM]
Cc1cc(C#Cc2ccc(C(C)(C)C)cc2)ccc1-n1c(/C=C/c2ccc(O)cc2O)nc2ccccc2c1=O,3.82,12.8,7.48,26.8,1.87,16,10.9,30.6,2.98,11.4,3.67,16.2,2.08,5.27,1.88,4.46,3.17,13.4,1.81,3.71
COc1cc2nc(-c3cc(F)ccc3O)nc(N[C@@H]3CNC[C@H]3C(C)(C)O)c2cc1OC,1.94,5.68,1.47,3.43,0.42,2.71,2.29,4.72,1.12,2.6,1.44,3.02,2,3.85,1.27,2.55,2.31,6.09,1.82,3.39
OCCNC1c2cc(Cl)ccc2-c2c(Cl)cc(Cl)cc21 (stereo unspecified),,> 100,,47,,> 100,,> 100,,> 100,,> 100,,> 100,,> 100,,> 100,,> 100
COc1cc2c(cc1OCCCCN1CCN(C(=S)SCCC(C#N)(c3ccccc3)c3ccccc3)CC1)N=C[C@@H]1CCCN1C2=O,1.26,3.04,,,1.64,3.68,2.96,9.81,1.19,2.81,1.88,5.74,1.13,> 100,0.414,2.01,3.05,> 100,,
Cc1ccc(-c2nc([P+](c3ccccc3)(c3ccccc3)c3ccccc3)c(S(=O)(=O)c3ccc(C)cc3)o2)cc1,1.73,3.27,1.61,3.15,1.21,4.41,3.74,12.5,1.61,4.77,1.21,2.98,1.7,4.17,1.4,2.79,2.94,18,0.929,2.47
Nc1nc(Nc2ccccc2SSc2ccccc2Nc2nc(N)nc(C(Cl)(Cl)Cl)n2)nc(C(Cl)(Cl)Cl)n1,4.85,17.2,3.49,15.7,2.94,22.3,26.4,91.3,24.3,88.8,5.8,20.4,22.3,79.7,3.47,10.3,3.68,16.6,2.67,7.99
O=C(O)c1cccc(C(=O)O)c1S(=O)Cc1ccccc1 (stereo unspecified),,> 100,,> 100,,> 100,,> 100,,> 100,,> 100,,> 100,,> 100,,> 100,,> 100
